According to patent publication US12195427B2, “MASP-2 inhibitors and methods of use” (priority 2018, dated 2025):

Legend:
Lectin Pathway = Lectin Pathway Activation Assay in Human Serum (mannan-coated ELISA, C3c detection); assay type: biochemical; conditions: 1% human serum
Description: Microtiter ELISA plate was coated with mannan from Saccharomyces cerevisiae (Sigma-Aldrich, M7504) for overnight at 4° C. in coating buffer [15 mM Na2CO3, 35 mM NaHCO3].

MASP-2 CCP2-SP = MASP-2 CCP2-SP (Homo sapiens (Human), UniProt O00187); assay: MASP-2 co-crystallization, X-ray crystallography and structure analysis (H-bonds, van der Waals contacts); parameters: van der Waals contact distance, MASP-2 HIS 483 atom CD2 / van der Waals contact distance, MASP-2 HIS 483 atom NE2 / van der Waals contact distance, SER 654 C to compound atom / van der Waals contact distance, SER 654 O to compound atom / van der Waals contact distance, TRP 655 C to compound atom / van der Waals contact distance, MASP-2 GLY 528 atom CA / van der Waals contact distance TRP 655 atom CZ3 / van der Waals contact distance TRP 655 atom N / van der Waals contact distance TRP 655 atom CE3 / van der Waals contact distance GLY 656 atom C / van der Waals contact distance GLY 656 atom CA / van der Waals contact distance GLY 656 atom O / van der Waals contact distance, MASP-2 TYR 607 atom CD1 / van der Waals contact distance, MASP-2 PRO 606 atom O / d(C3,CA1) / d(CA1,N1)2 / d(H4,O1) / d(H4,O2) / d(O1,O2) / d(CA1,O2) / d(CA6,O1) / d(CA6,O2) / d(CA1,C5) / d(O2,H3) / d(N2,C2) / d(CA5,N2) / d(N2,C4) / d(N2,C6) / d(N2,CA3) / d(N2,O3) / d(O4,H2): unit not given beside the values; conditions: for H-bond distance to MASP-2 ASP 627 atom OD2: ASP 627 OD2; for H-bond distance to MASP-2 GLY 656 atom N: GLY 656 N; for H-bond distance to MASP-2 GLY 656 atom O: GLY 656 O; for H-bond distance to MASP-2 SER 654 atom O: SER 654 O; for H-bond distance to MASP-2 SER 657 atom O: SER 657 O; for van der Waals contact distance, MASP-2 HIS 483 atom CD2 / van der Waals contact distance, MASP-2 HIS 483 atom NE2: Table A2-1; for van der Waals contact distance, MASP-2 amino acid atom to compound atom: Table A2-9, ARG 630, AA atoms CG, CZ; for van der Waals contact distance, VAL 653 CG1 to compound atom: Table A2-11; for van der Waals contact distance, TRP 655 CA to compound atom: Table A2-12; for Ligand-pharmacophore element distance, pharmacophore element C2 / Ligand-pharmacophore element distance, pharmacophore element C3 / Ligand-pharmacophore element distance, pharmacophore element C4 / Ligand-pharmacophore element distance, pharmacophore element C5 / Ligand-pharmacophore element distance, pharmacophore element C6 / Ligand-pharmacophore element distance, pharmacophore element C7 / Ligand-pharmacophore element distance, pharmacophore element CA1 / Ligand-pharmacophore element distance, pharmacophore element CA2 / Ligand-pharmacophore element distance, pharmacophore element CA3 / Ligand-pharmacophore element distance, pharmacophore element CA4 / Ligand-pharmacophore element distance, pharmacophore element CA5 / Ligand-pharmacophore element distance, pharmacophore element CA6: Table A4-1; for d(C3,CA1) / d(CA1,N1)2 / d(CA1,O1) / d(CA1,O2) / d(H4,O1) / d(H4,O2) / d(O1,O2): Table A5-1 pharmacophore: distance between elements, S2/S1 region; for d(N2,CA2) / d(O2,H3) / d(O2,N2): Table A5-2 pharmacophore distance, S3/S4 region; for a(C3, CA1, O1) / a(CA1, O1, O2) / a(O1, O2, H4) / a(N1, CA1, O1) b): Table A6-1 pharmacophore angle; for a(N1, CA1, O1) b): Methyl-amino-pyridine compounds; for a(O1, O2, H3) / a(O1, O2, N2) / a(O2, N2, CA2): Table A6-2 pharmacophore angle; for Pharmacophore torsion angle a(C3, CA1, O1, H4) / Pharmacophore torsion angle a(H4, O1, O2, H3) / Pharmacophore torsion angle a(H4, O1, O2, N2) / Pharmacophore torsion angle a(N1, CA1, O1, H4) / Pharmacophore torsion angle a(O1, H4, O2, CA1): Table A7-1; for Pharmacophore torsion angle a(C3, CA1, O1, H4) / Pharmacophore torsion angle a(H4, O1, O2, H3) / Pharmacophore torsion angle a(H4, O1, O2, N2) / Pharmacophore torsion angle a(N1, CA1, O1, H4) / Pharmacophore torsion angle a(O1, H4, O2, CA1) / Pharmacophore torsion angle a(O1, O2, N2, CA2) / Pharmacophore torsion angle a(O1, O2, N2, CA4): between pharmacophore elements of the bound compound; for Pharmacophore torsion angle a(O1, O2, N2, CA2) / Pharmacophore torsion angle a(O1, O2, N2, CA4): Table A7-2;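 for Ligand-pharmacophore element distance, pharmacophore element C2: distance from averaged pharmacophore element to bound ligand; missing value means element absent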;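 for Ligand-pharmacophore element distance, pharmacophore element C3: distance from averaged pharmacophore element to bound ligand; missing value means element absent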;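 for Ligand-pharmacophore element distance, pharmacophore element C4: distance from averaged pharmacophore element to bound ligand; missing value means element absent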;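 for Ligand-pharmacophore element distance, pharmacophore element C5: distance from averaged pharmacophore element to bound ligand; missing value means element absent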
MASP-2 CCP2-SP, sequence (O00187 445-686): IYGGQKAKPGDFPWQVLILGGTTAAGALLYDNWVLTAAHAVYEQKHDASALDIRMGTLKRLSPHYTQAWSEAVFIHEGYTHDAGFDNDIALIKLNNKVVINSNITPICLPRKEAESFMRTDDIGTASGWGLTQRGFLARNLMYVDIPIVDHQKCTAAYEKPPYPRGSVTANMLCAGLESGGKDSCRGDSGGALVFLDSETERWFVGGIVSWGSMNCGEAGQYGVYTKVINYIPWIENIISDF
MASP-2 CCP2-SP, sequence (O00187 364-432 partner): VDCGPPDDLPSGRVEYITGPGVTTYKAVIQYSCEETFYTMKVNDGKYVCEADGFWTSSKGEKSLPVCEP
In short: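 Soaked crystals of recombinant CCP2-SP (E. coli) yield the structures, phased by molecular replacement on 1Q3X pieces. Hydrophobic or nonbonded contacts can also cover atom pairs that are potential hydrogen bonds.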

## Cc1nc(N)ccc1CNC(=O)[C@H](C)NC(=O)[C@H]1C[C@H](Cc2ccc3ccccc3c2)CN1 [compound 1338, (2R,4S)—N—((S)-1-(((6-Amino-2-methylpyridin-3-yl)methyl)amino)-1-oxopropan-2-yl)-4-(naphthalen-2-ylmethyl)pyrrolidine-2-carboxamide]
Lectin Pathway
  IC50: 50 to 500 nM
MASP-2 CCP2-SP; Table A1 (H-Bonds)
  H-bond distance to MASP-2 ASP 627 atom OD2: 3.2
  H-bond distance to MASP-2 GLY 656 atom N: 3.23
  H-bond distance to MASP-2 GLY 656 atom O: 2.78
  H-bond distance to MASP-2 SER 654 atom O: 2.99
  H-bond distance to MASP-2 SER 657 atom O: 2.93
MASP-2 CCP2-SP; Table A1 (H-Bonds), SER 628 O
  H-bond distance to MASP-2 SER 628 atom O: 3.04
MASP-2 CCP2-SP
  van der Waals contact distance, MASP-2 HIS 483 atom CD2: 3.58
  van der Waals contact distance, MASP-2 HIS 483 atom NE2: 3.82
  van der Waals contact distance, MASP-2 amino acid atom to compound atom: 3.75
  van der Waals contact distance, VAL 653 CG1 to compound atom: 3.33
  van der Waals contact distance, TRP 655 CA to compound atom: 3.4
  Ligand-pharmacophore element distance, pharmacophore element C2: 0
  Ligand-pharmacophore element distance, pharmacophore element C3: 0.12
  Ligand-pharmacophore element distance, pharmacophore element C4: 0
  Ligand-pharmacophore element distance, pharmacophore element C5: 0
  Ligand-pharmacophore element distance, pharmacophore element C6: 0
  Ligand-pharmacophore element distance, pharmacophore element C7: 0
  Ligand-pharmacophore element distance, pharmacophore element CA1: 0.55
  Ligand-pharmacophore element distance, pharmacophore element CA2: 0.59
  Ligand-pharmacophore element distance, pharmacophore element CA3: 0
  Ligand-pharmacophore element distance, pharmacophore element CA4: 1.21
  Ligand-pharmacophore element distance, pharmacophore element CA5: 0
  Ligand-pharmacophore element distance, pharmacophore element CA6: 0
  d(C3,CA1): 2.88
  d(CA1,N1)2: 1.37
  d(CA1,O1): 4.35
  d(CA1,O2): 3.80
  d(H4,O1): 4.33
  d(H4,O2): 3.75
  d(O1,O2): 3.35
  d(N2,CA2): 6.05
  d(O2,H3): 4.29
  d(O2,N2): 2.74
  a(C3, CA1, O1): 148.99
  a(CA1, O1, O2): 105.30
  a(O1, O2, H4): 131.78
  a(N1, CA1, O1) b): 173.72
  a(O1, O2, H3): 148.03
  a(O1, O2, N2): 141.48
  a(O2, N2, CA2): 157.11
  Pharmacophore torsion angle a(C3, CA1, O1, H4): 23.02
  Pharmacophore torsion angle a(H4, O1, O2, H3): 52.11
  Pharmacophore torsion angle a(H4, O1, O2, N2): 140.39
  Pharmacophore torsion angle a(N1, CA1, O1, H4): −3.32
  Pharmacophore torsion angle a(O1, H4, O2, CA1): −85.13
  Pharmacophore torsion angle a(O1, O2, N2, CA2): 124.64
  Pharmacophore torsion angle a(O1, O2, N2, CA4): 116.54
MASP-2 CCP2-SP; Table A2-2
  van der Waals contact distance, MASP-2 ALA 527 atom C: 3.67
MASP-2 CCP2-SP; Table A2-3
  van der Waals contact distance, MASP-2 PHE 529 atom CE2: 3.86
MASP-2 CCP2-SP; Table A2-13, MASP-2 TRP 655 CE3, compound atom in line below
  van der Waals contact distance TRP 655 atom CE3: 3.83
MASP-2 CCP2-SP; Table A2-13, MASP-2 TRP 655 CZ3
  van der Waals contact distance TRP 655 atom CZ3: 3.74
MASP-2 CCP2-SP; Table A2-13, MASP-2 TRP 655 N
  van der Waals contact distance TRP 655 atom N: 3.9

## Cc1nc(N)ccc1CNC(=O)[C@H](C)NC(=O)[C@H]1C[C@H](Cc2ccc(-c3ccccc3)cc2)CN1 [compound 1351, (2R,4S)-4-([1,1′-Biphenyl]-4-ylmethyl)-N—((S)-1-(((6-amino-2-methylpyridin-3-yl)methyl)amino)-1-oxopropan-2-yl)pyrrolidine-2-carboxamide]
Lectin Pathway
  IC50: < 50 nM
MASP-2 CCP2-SP; Table A1 (H-Bonds)
  H-bond distance to MASP-2 ASP 627 atom OD2: 3.22
  H-bond distance to MASP-2 GLY 656 atom N: 3.25
  H-bond distance to MASP-2 GLY 656 atom O: 2.76
  H-bond distance to MASP-2 SER 654 atom O: 2.98
  H-bond distance to MASP-2 SER 657 atom O: 2.8
MASP-2 CCP2-SP
  van der Waals contact distance, MASP-2 HIS 483 atom CD2: 3.66
  van der Waals contact distance, MASP-2 HIS 483 atom NE2: 3.9
  van der Waals contact distance, MASP-2 amino acid atom to compound atom: 3.81
  van der Waals contact distance, VAL 653 CG1 to compound atom: 3.3
  van der Waals contact distance, TRP 655 CA to compound atom: 3.34
  Ligand-pharmacophore element distance, pharmacophore element C2: 0
  Ligand-pharmacophore element distance, pharmacophore element C3: 0.12
  Ligand-pharmacophore element distance, pharmacophore element C4: 0
  Ligand-pharmacophore element distance, pharmacophore element C5: 0
  Ligand-pharmacophore element distance, pharmacophore element C6: 0
  Ligand-pharmacophore element distance, pharmacophore element C7: 0
  Ligand-pharmacophore element distance, pharmacophore element CA1: 0.57
  Ligand-pharmacophore element distance, pharmacophore element CA2: 0.8
  Ligand-pharmacophore element distance, pharmacophore element CA3: 0
  Ligand-pharmacophore element distance, pharmacophore element CA4: 3.3
  Ligand-pharmacophore element distance, pharmacophore element CA5: 0
  Ligand-pharmacophore element distance, pharmacophore element CA6: 0
  d(C3,CA1): 2.85
  d(CA1,N1)2: 1.38
  d(CA1,O1): 4.47
  d(CA1,O2): 3.79
  d(H4,O1): 4.47
  d(H4,O2): 3.70
  d(O1,O2): 3.38
  d(N2,CA2): 6.12
  d(O2,H3): 4.26
  d(O2,N2): 2.76
  a(C3, CA1, O1): 149.86
  a(CA1, O1, O2): 103.11
  a(O1, O2, H4): 132.32
  a(N1, CA1, O1) b): 173.60
  a(O1, O2, H3): 148.60
  a(O1, O2, N2): 141.59
  a(O2, N2, CA2): 158.04
  Pharmacophore torsion angle a(C3, CA1, O1, H4): 26.55
  Pharmacophore torsion angle a(H4, O1, O2, H3): 51.88
  Pharmacophore torsion angle a(H4, O1, O2, N2): 138.69
  Pharmacophore torsion angle a(N1, CA1, O1, H4): −0.13
  Pharmacophore torsion angle a(O1, H4, O2, CA1): −83.97
  Pharmacophore torsion angle a(O1, O2, N2, CA2): 121.52
  Pharmacophore torsion angle a(O1, O2, N2, CA4): 119.61
MASP-2 CCP2-SP; Table A2-2
  van der Waals contact distance, MASP-2 ALA 527 atom CA: 3.71
MASP-2 CCP2-SP; Table A2-3
  van der Waals contact distance, MASP-2 PHE 529 atom CE1: 3.8
